# Reference: ChEMBL document CHEMBL1201862, “PubChem BioAssay data set” (2004)
#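 Five compound concentrations were applied to cells in 96-well plates for 48 hours; endpoints were derived by simple linear interpolation of the resulting dose-response curve. GI50 = concentration required for 50% inhibition of growth.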 Active and inactive are the calls of the source. No stated cut-off is given here; in the data, active = GI50 up to about 1.1 µM and inactive = higher.
# How the values were obtained:
# Experiment in all cases: NCI-60 cell line screen, 48 h
# [1] = system: 786-0
# [2] = system: EKVX
# [3] = system: OVCAR-4
# [4] = system: LOX IMVI
# [5] = system: M14
# [6] = system: DLD-1
# [7] = system: SR
# [8] = system: SNB-75
# [9] = system: A549
# [10] = system: CAKI-1
# [11] = system: M19-MEL
# [12] = system: NCI-H460
# [13] = system: K562
# [14] = system: COLO 205
# [15] = system: UACC-257
# [16] = system: KM12
# [17] = system: NCI-H23
# [18] = system: SK-MEL-28
# [19] = system: HT-29
# [20] = system: A498
# [21] = system: LXFL 529
# [22] = system: SNB-78
# [23] = system: HCT-116
# [24] = system: HL-60
# [25] = system: UACC-62
# [26] = system: NCI-H522
# [27] = system: RXF 631
# [28] = system: HOP-92
# [29] = system: SW-620
# [30] = system: SK-OV-3
# [31] = system: HOP-62
# [32] = system: ACHN
# [33] = system: SK-MEL-5
# [34] = system: SNB-19
# [35] = system: IGROV-1
# [36] = system: NCI-H226
# [37] = system: OVCAR-8
# [38] = system: SF-268
# [39] = system: SF-295
# [40] = system: TK-10
# [41] = system: RXF 393
# [42] = system: SF-539
# [43] = system: CCRF-CEM
# [44] = system: OVCAR-3
# [45] = system: DMS-114
# [46] = system: UO-31
# [47] = system: KM-20L2
# [48] = system: U-251
# [49] = system: MOLT-4
# [50] = system: XF498
# [51] = system: Malme-3M
# [52] = system: SN12C
# [53] = system: HOP-18
# [54] = system: T47D
# [55] = system: SK-MEL-2
# [56] = system: HCC 2998
# [57] = system: RPMI-8226
# [58] = system: MCF7
# [59] = system: PC-3
# [60] = system: NCI/ADR-RES
# [61] = system: MDA-MB-435
# [62] = system: MDA-N
# [63] = system: OVCAR-5
# [64] = system: MDA-MB-231
# [65] = system: DMS-273
# [66] = system: Hs-578T
# [67] = system: DU-145
# [68] = system: HCT-15
smiles,measurement,setting,value
CC1CC[C@@]23CCC4(C)[C@@](C=CC5[C@@]6(C)CCC(=O)C(C)(C)C6CC[C@]54C)(OC2=O)[C@@H]3[C@H]1C (some centres undefined),GI50,[1],24.3 µM (inactive)
same,GI50,[2],32.1 µM (inactive)
same,GI50,[3],29.4 µM (inactive)
same,GI50,[4],13.8 µM (inactive)
same,GI50,[5],21.7 µM (inactive)
same,GI50,[6],19.3 µM (inactive)
same,GI50,[7],6.08 µM (inactive)
same,GI50,[8],23.6 µM (inactive)
same,GI50,[9],6.93 µM (inactive)
same,GI50,[10],21.5 µM (inactive)
same,GI50,[11],17.9 µM (inactive)
same,GI50,[12],13.2 µM (inactive)
same,GI50,[13],6.3 µM (inactive)
same,GI50,[14],13.7 µM (inactive)
same,GI50,[15],6.59 µM (inactive)
same,GI50,[16],12 µM (inactive)
same,GI50,[17],11.9 µM (inactive)
same,GI50,[18],20.4 µM (inactive)
same,GI50,[19],16.4 µM (inactive)
same,GI50,[20],20.6 µM (inactive)
same,GI50,[21],9.89 µM (inactive)
same,GI50,[22],20 µM (inactive)
same,GI50,[23],6.68 µM (inactive)
same,GI50,[24],1.6 µM (inactive)
same,GI50,[25],12.2 µM (inactive)
same,GI50,[26],11 µM (inactive)
same,GI50,[27],21.1 µM (inactive)
same,GI50,[28],15.9 µM (inactive)
same,GI50,[29],30.8 µM (inactive)
same,GI50,[30],27.9 µM (inactive)
same,GI50,[31],16.9 µM (inactive)
same,GI50,[32],12 µM (inactive)
same,GI50,[33],4.84 µM (inactive)
same,GI50,[34],29.8 µM (inactive)
same,GI50,[35],21.1 µM (inactive)
same,GI50,[36],19.8 µM (inactive)
same,GI50,[37],18.6 µM (inactive)
same,GI50,[38],50.4 µM (inactive)
same,GI50,[39],18.8 µM (inactive)
same,GI50,[40],22.4 µM (inactive)
same,GI50,[41],14.1 µM (inactive)
same,GI50,[42],24.5 µM (inactive)
same,GI50,[43],5.35 µM (inactive)
same,GI50,[44],11.9 µM (inactive)
same,GI50,[45],6.46 µM (inactive)
same,GI50,[46],8.02 µM (inactive)
same,GI50,[47],15.4 µM (inactive)
same,GI50,[48],17.3 µM (inactive)
same,GI50,[49],7.29 µM (inactive)
same,GI50,[50],15.3 µM (inactive)
same,GI50,[51],20.9 µM (inactive)
same,GI50,[52],20.2 µM (inactive)
Sc1ncnc2nc[nH]c12 [MERCAPTOPURINE ANHYDROUS],GI50,[1],2.03 µM (inactive)
same,GI50,[2],263 µM (inactive)
same,GI50,[3],8.05 µM (inactive)
same,GI50,[4],0.383 µM (active)
same,GI50,[5],0.675 µM (active)
same,GI50,[6],2.08 µM (inactive)
same,GI50,[7],1.24 µM (inactive)
same,GI50,[8],8.75 µM (inactive)
same,GI50,[9],30.1 µM (inactive)
same,GI50,[10],3.21 µM (inactive)
same,GI50,[11],69 µM (inactive)
same,GI50,[12],5.53 µM (inactive)
same,GI50,[13],0.351 µM (active)
same,GI50,[53],192 µM (inactive)
same,GI50,[14],4.94 µM (inactive)
same,GI50,[15],14.4 µM (inactive)
same,GI50,[16],7.57 µM (inactive)
same,GI50,[17],3.89 µM (inactive)
same,GI50,[18],372 µM (inactive)
same,GI50,[54],3.55 µM (inactive)
same,GI50,[19],4.02 µM (inactive)
same,GI50,[20],58.7 µM (inactive)
same,GI50,[55],5.97 µM (inactive)
same,GI50,[21],653 µM (inactive)
same,GI50,[56],3.51 µM (inactive)
same,GI50,[57],1.76 µM (inactive)
same,GI50,[22],90.4 µM (inactive)
same,GI50,[58],1.64 µM (inactive)
same,GI50,[23],2.37 µM (inactive)
same,GI50,[59],4.39 µM (inactive)
same,GI50,[24],2.44 µM (inactive)
same,GI50,[25],1.76 µM (inactive)
same,GI50,[26],1.62 µM (inactive)
same,GI50,[60],3.56 µM (inactive)
same,GI50,[61],1.44 µM (inactive)
same,GI50,[62],1.78 µM (inactive)
same,GI50,[28],2.94 µM (inactive)
same,GI50,[63],8.63 µM (inactive)
same,GI50,[29],6.38 µM (inactive)
same,GI50,[64],24.4 µM (inactive)
same,GI50,[30],1.03 µM (active)
same,GI50,[31],1.75 µM (inactive)
same,GI50,[65],0.426 µM (active)
same,GI50,[32],6.27 µM (inactive)
same,GI50,[33],8.36 µM (inactive)
same,GI50,[34],128 µM (inactive)
same,GI50,[35],9.48 µM (inactive)
same,GI50,[36],58.5 µM (inactive)
same,GI50,[37],2.54 µM (inactive)
same,GI50,[38],4.11 µM (inactive)
same,GI50,[39],5.81 µM (inactive)
same,GI50,[40],1.94 µM (inactive)
same,GI50,[41],29.5 µM (inactive)
same,GI50,[42],2.49 µM (inactive)
same,GI50,[43],1.26 µM (inactive)
same,GI50,[44],0.857 µM (active)
same,GI50,[45],1.67 µM (inactive)
same,GI50,[46],6.85 µM (inactive)
same,GI50,[47],1.92 µM (inactive)
same,GI50,[66],14.2 µM (inactive)
same,GI50,[48],13.7 µM (inactive)
same,GI50,[67],2.51 µM (inactive)
same,GI50,[49],1.61 µM (inactive)
same,GI50,[50],5.04 µM (inactive)
same,GI50,[51],3.66 µM (inactive)
same,GI50,[68],4.57 µM
same,GI50,[52],23.8 µM (inactive)
